Test results from US7220773B2, “Pyrrole derivative” (Dainippon Sumitomo Pharma Co., Ltd., priority 2001, dated 2007).

Tested on: male db/db mice
Test: Hypoglycemic activity in db/db mice, oral administration once a day for 2 weeks
Type: in vivo
Settings: male db/db mice (7 to 8 weeks old), versus vehicle on last day; for inhibition in vivo at 30 mg/kg / inhibition in vivo at 100 mg/kg: Mus musculus, po, 336 h; for inhibition in vivo at 100 mg/kg: dosage 100 mg/kg orally once a day for 2 weeks in 0.5% carboxymethyl cellulose
Procedure: The test compounds described in Examples (these compound were made into a free form from a salt form, a sodium salt or calcium salt, if necessary) were dissolved or suspended in 0.5% carboxymethyl cellulose solution. Mice were forced to orally administer the test compound as to administer the total amount of 30 mg/kg or 100 mg/kg to male db/db mice (7 to 8 weeks old) once a day for 2 weeks. On last day, to the blood just taken from tail vein was added perchloric acid to remove proteins and then the blood sugar was measure by glucose CII Test Waco (Wako Pure Chemical Ind.). Hypoglycemic activity was calculated as following formula: [formula] • A: Blood sugar level of Vehicle (on last day) • B: Blood sugar level of test compound-administered group (on last day)

[1] = dosage 30 mg/kg orally once a day for 2 weeks in 0.5% carboxymethyl cellulose

Row | Structure (SMILES) | inhibition in vivo at 30 mg/kg [1] | inhibition in vivo at 100 mg/kg | further results
1 | Cc1ccc(C(=O)c2cccn2C/C=C/c2cccc([C@H](C)C(=O)O)c2)cc1 [Example 111] | 61% | – | –
2 | Cc1ccc(C(=O)c2cccn2C/C=C/c2cccc([C@@H](C)C(=O)O)c2)cc1 [Example 110] | 17% | – | –
3 | O=C(O)COc1cccc(/C=C/Cn2cccc2C(=O)c2ccc(Cl)cc2)c1 [Example 53] | – | 23% | –
4 | CC(Oc1cccc(/C=C/Cn2cccc2C(=O)c2ccc(C(F)(F)F)cc2)c1)C(=O)O (stereo not drawn) [Example 143] | 21% | – | –
5 | CCC(Cc1cccc(/C=C/Cn2cccc2C(=O)c2ccc(C)cc2)c1)C(=O)O (stereo not drawn) [Example 165] | – | 68% | –
6 | Cc1ccc(C(=O)c2cccn2C/C=C/c2cccc(SC(C)C(=O)O)c2)cc1 (stereo not drawn) [Example 126] | 56% | – | –
7 | Cc1ccc(NC(=O)c2cccn2C/C=C/c2cccc(SCC(=O)O)c2)cc1 [Example 135] | – | 16% | –
8 | Cc1ccc(C(=O)c2cccn2C/C=C/c2cccc(C(C)(C)C(=O)O)c2)cc1 [Example 39] | – | 65% | –
9 | COc1cccc(C(=O)c2cccn2C/C=C/c2cccc(OC(C)C(=O)O)c2)c1 (stereo not drawn) [Example 63] | 19% | – | –
10 | Cc1ccc(C(=O)c2ccn(C/C=C/c3cccc(SC(C)C(=O)O)c3)c2)cc1 (stereo not drawn) [Example 128] | – | 27% | –
11 | Cc1ccc(C(=O)c2cccn2C/C=C/c2cccc(O[C@H](C)C(=O)O)c2)cc1 [Example 139] | – | 55% | –
12 | COc1ccc(C(=O)c2cc(C)cn2C/C=C/c2cccc(O[C@@H](C)C(=O)O)c2)cc1 [Example 158] | 24% | – | –
13 | Cc1ccc(C(=O)c2cccn2C/C=C/c2cccc(O[C@@H](C)C(=O)O)c2)cc1 [Example 142] | – | 55% | –
14 | Cc1ccc(CC(=O)c2cccn2C/C=C/c2cccc(O[C@@H](C)C(=O)O)c2)cc1 [Example 191] | 15% | – | –
15 | CCc1ccc(C(=O)c2cccn2C/C=C/c2cccc(O[C@@H](C)C(=O)O)c2)cc1 [Example 91] | 55% | – | –
16 | Cc1ccc(CC(=O)c2cccn2C/C=C/c2cccc(O[C@@H](C)C(=O)O)c2)cc1 [Example 201] | – | – | Hypoglycemic activity(%) [1]: 18%
17 | CC(Oc1cccc(/C=C/Cn2cccc2C(=O)c2cccc(Oc3ccc(C(F)(F)F)cc3)c2)c1)C(=O)O (stereo not drawn) [Example 155] | 57% | – | –
18 | COc1ccccc1NC(=O)c1cccn1C/C=C/c1cccc(SCC(=O)O)c1 [Example 171] | – | 20% | –
19 | CC(Oc1cccc(/C=C/Cn2cccc2C(=O)Nc2ccc(OC(F)(F)F)cc2)c1)C(=O)O (stereo not drawn) [Example 179] | 22% | – | –
20 | C[C@H](Oc1cccc(/C=C/Cn2cccc2C(=O)c2ccc3c(c2)CCO3)c1)C(=O)O [Example 186] | 44% | – | –
21 | C[C@H](Oc1cccc(/C=C/Cn2cccc2C(=O)c2ccc3c(c2)OCO3)c1)C(=O)O [Example 92] | 46% | – | –
